According to patent US9951055B2, “Thiazole-based inhibitors of scavenger receptor BI” (THE BROAD INSTITUTE, INC., priority 2012, dated 2018):

Experiments:
murine SR-BI = biological target: T1, murine SR-BI (Mus musculus, UniProt Q61009); assay: Compound reversibility, cellular uptake of DiI from DiI-HDL; assay type: cell-based; conditions: 1 hr preincubation, then 0 or 4 hr incubation in the absence of compound; read-out: IC50, reversibility test (DiI uptake)
T1 construct: expressed in transfected cells; host or cells: ldlA[mSR-BI]; (CHO ldlA7 derivative lacking the LDL receptor)
T1 sequence (Q61009 1-509): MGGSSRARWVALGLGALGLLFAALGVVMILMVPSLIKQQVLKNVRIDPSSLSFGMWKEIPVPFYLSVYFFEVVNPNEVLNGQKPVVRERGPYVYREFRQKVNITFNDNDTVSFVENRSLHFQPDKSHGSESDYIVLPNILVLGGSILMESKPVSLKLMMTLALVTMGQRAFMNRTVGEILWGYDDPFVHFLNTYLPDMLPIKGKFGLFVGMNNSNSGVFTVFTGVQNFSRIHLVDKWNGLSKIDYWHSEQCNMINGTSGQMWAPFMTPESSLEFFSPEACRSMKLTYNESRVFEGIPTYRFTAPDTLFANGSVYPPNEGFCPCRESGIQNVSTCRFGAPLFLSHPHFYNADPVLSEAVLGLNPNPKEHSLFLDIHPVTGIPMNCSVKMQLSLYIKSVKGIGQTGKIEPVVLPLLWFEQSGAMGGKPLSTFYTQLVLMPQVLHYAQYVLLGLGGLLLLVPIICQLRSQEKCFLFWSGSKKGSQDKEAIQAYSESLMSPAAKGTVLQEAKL
Description: Compound reversibility was tested by measuring the cellular uptake of DiI from DiI-HDL (all incubations at 37° C.) in ldlA7 cells that were stably transfected with cDNA encoding murine SR-BI. On day 0, 50,000 cells were plated in 96-well dishes per well (Costar, black with clear, flat bottom) in Ham's F12 medium containing 2 mM L-glutamine, 50 units/mL penicillin per 50 μg/mL streptomycin (medium A) supplemented with 5% (vol/vol) FBS and 0.25 mg/mL G418 (medium B). On day 2, the cells were washed twice with prewarmed (37° C.) medium A. The cells were then preincubated with the tested compounds in 200 μL per well of medium A plus 0.5% (wt/vol) BSA plus 0.5% (vol/vol) DMSO (medium C) for 1 hr. The 1 hr preincubation was followed by either a 0 or 4 hr incubation in medium C in the absence of compound. The cells were then incubated in medium C (200 μL per well) containing 10 μg protein per mL of DiI-HDL at 37° C. for 2 h to measure DiI uptake. […] Then 50 μL PBS was added and fluorescence measurements made using a Molecular Devices SpectraMax fluorescence plate reader (excitation at 515 nm, emission at 575 nm, bottom read mode). DiI uptake was also measured in the presence of a 40-fold excess of unlabeled HDL to determine nonspecific (SR-BI-independent) uptake.

[1] = test system: endocytosis of transferrin; assay: Transferrin endocytosis assay; assay type: cell-based
Source text: Transferrin Endocytosis Assay (SA 3: AID No. 602134) This assay measures the endocytosis of an independent ligand, transferrin, which is not taken up via SR-BI but by clathrin-mediated endocytosis. This assay provides a measure of the selectivity of the inhibitors. Alexa-594-labeled transferrin is taken into the cell via endocytosis and localization of labeled transferrin was quantitated in the various intracellular compartments. […] Inhibitors of interest should act selectively at SR-BI and should have no activity in this assay. Cells were pre-treated with compound for 3 hours and then treated with the Alexa-594 transferrin reagent for 30 minutes (Catalog No. T-13343; Invitrogen) in serum-free media. Plates of cells were then placed onto ice, washed with ice cold PBS, and then fixed with 4% paraformaldehyde. In addition, the nuclei were stained with 300 nM 4′,6-diamidino-2-phenylindole (DAPI) (Catalog No. 21490; Invitrogen). The cells were imaged with the Molecular Devices IXM microscope (FIG. 22). Translocation measurements were performed using MetaExpress software and normalized for cell number.

Stability in PBS = assay type: physicochemical; conditions: PBS (1% DMSO), over 48 hours
Description: (§1) The stability of the probe in PBS (1% DMSO) was measured over 48 hours. We noticed that the concentration of the probe fluctuated through the course of the assay (data not shown). We believe that this fluctuation is due to the low solubility of the probe. Thus, we decided to determine the amount of undissolved probe present in the well after it was treated with PBS for a given length of time, relative to the amount of undissolved probe at the start of the assay. The wells were centrifuged and the supernatant was removed after various time points, then acetonitrile was added to dissolve the remaining solid in the wells, and the amount of probe was quantified. […] The stability of the probe was confirmed by measuring stability in human plasma, with >99% remaining after a 5-hour incubation period. […] FIG. 5 provides a tablular summary of Known Probe (ML278) Properties Computed from Structure.

[2] = Stability in human plasma; assay type: in vitro ADME; conditions: after a 5-hour incubation period
Description: as §1

Plasma protein binding = assay type: in vitro ADME; conditions: human plasma; read-out: plasma protein binding, bound (converted)
SR-BI = biological target: T2, SR-BI (Mus musculus, UniProt Q61009); assay: Radioactive HDL uptake assay (wild type SR-BI); assay type: cell-based, murine; parameters: expressed in transfected cells; host or cells: ldlA[mSR-BI]; (CHO ldlA7 derivative lacking the LDL receptor); conditions: [3H]cholesteryl ester HDL; read-out: average IC50, radiolabeled version of the uptake assay
T2 sequence (Q61009 1-509): T1 sequence (Q61009 1-509)
Source text: Radioactive HDL Uptake Assay (wild type SR-BI) (SA 8: AID No. 588836)
The goal of this assay is to verify compounds that disrupt the lipid uptake from HDL particles to SR-BI scavenger receptor-expressing cells using an alternative means of labeling HDL particles and avoiding any type of fluorescence measurement. To measure this binding event, HDL particles are labeled with [^3H]cholesteryl ester and added to mSR-BI expressing cells. Cells take up the radioactive lipids from HDL via SR-BI in 2 to 3 hours. After significant uptake of the lipids from HDL, the radiolabel can be detected by liquid scintillation counting. The level of radioactivity correlates with the amount of HDL lipid uptake. The uptake of lipid from the HDL particles particles can be inhibited by the compound BLT-1 or when co-treated with an excess of unlabeled HDL. The ldlA[mSR-BI]-expressing cells utilized in the assay are from a Chinese Hamster Ovary (CHO) cell line lacking expression of the LDL receptors and overexpressing the scavenger receptor, SR-BI. Inhibitors of SR-BI and HDL lipid uptake will have a reduction in liquid scintillation counts.

COCC(=O)N1CCc2cc(-c3csc(NC(=O)c4cc(OC)cc(OC)c4)n3)ccc21 [Compound 137, 3,5-Dimethoxy-N-(4-(1-(2-methoxyacetyl)indolin-5-yl)thiazol-2-yl)benzamide]
IC50 (murine SR-BI): 315 nM | effect on the endocytosis of transferrin ([1]; at concentrations up to 35 μM): no effect on the endocytosis of transferrin | endocytosis of transferrin ([1]; listed as ML278): not grossly perturbing cellular membrane trafficking pathways | endocytosis of transferrin ([1]; listed as Probe 278): did not inhibit endocytosis of transferring | endocytosis of transferrin ([1]; listed as compound of Formula (II)): does not inhibit endocytosis of transferrin | stability in PBS (Stability in PBS): stable to PBS | stability in human plasma, remaining [2]: > 99% | fraction unbound (Plasma protein binding): 0.065 | IC50 (SR-BI): 1000 nM
